According to EP4782445A1, “CDK KINASE INHIBITOR AND USE THEREOF” (Abbisko Therapeutics Co., Ltd., priority 2023, dated 2025):
pIC50: −log10 of the molar value.

What was measured:
[1] = biological target: T1, CDK6/cyclin D3 (Homo sapiens, UniProt Q00534); assay: In vitro biochemical kinase activity assay for CDK6/cyclin D3 (HTRF); settings: data marked with *: 1 mM ATP in Step 1
T1 construct: purchased Carna
Description: III. In Vitro Biochemical Kinase Activity Assay for CDK6/Cyclin D3
The inhibitory effects of the compounds of the present invention on CDK6/cyclin D3 kinase activity were determined using an HTRF assay. The experimental process was as follows: 1. The kinase reaction was carried out in a 384-well plate. 0.02 nM CDK6/cyclin D3 (Carna), 1 mM (or 100 µM) ATP, and 0.3 µM biotin-labeled substrate protein Rb-biotin (Cisbio) were incubated at 30°C for 60 min in a buffer system composed of 5 mM MgCl2, 1 mM DTT, and basal kinase buffer (Cisbio). 2. The detection solution (Cisbio, containing reagents that specifically recognize phosphorylated Rb and Rb-biotin proteins, respectively) was added. The plate was then sealed with a film (to protect from light and volatilization) and incubated at 25°C for 60 min. 3. The plate was transferred to an Envision plate reader to detect FRET signals. (The 665/615 ratio was calculated by reading the emission at 665 nm and 615 nM, respectively.) 4. The IC50 values were determined by analyzing the inhibition at varying compound concentrations using Model 205 in the XLfit software.

[2] = biological target: T2, CDK4/cyclin D3 (Homo sapiens, UniProt P11802); assay: In vitro biochemical kinase activity assay for CDK4/cyclin D3 (HTRF); settings: data marked with *: 1 mM ATP in Step 1
T2 construct: purchased Carna
Description: II. In Vitro Biochemical Kinase Activity Assay for CDK4/Cyclin D3
The inhibitory effects of the compounds of the present invention on CDK4/cyclin D3 kinase activity were determined using an HTRF assay. The experimental process was as follows: • 1. The kinase reaction was carried out in a 384-well plate. 4.9 nM CDK4/cyclin D3 (Carna), 1 mM (or 80 µM) ATP, and 0.3 µM biotin-labeled substrate protein Rb-biotin (Cisbio) were incubated at 30°C for 90 min in a buffer system composed of 50 mM MgCl2, 1 mM DTT, and basal kinase buffer (Cisbio). • 2. The detection solution (Cisbio, containing reagents that specifically recognize phosphorylated Rb and Rb-biotin proteins, respectively) was added. The plate was then sealed with a film (to protect from light and volatilization) and incubated at 25°C for 60 min. • 3. The plate was transferred to an Envision plate reader to detect FRET signals. (The 665/615 ratio was calculated by reading the emission at 665 nm and 615 nM, respectively.) • 4. The IC50 values were determined by analyzing the inhibition at varying compound concentrations using Model 205 in the XLfit software.

T2 sequence (P11802 whole entry): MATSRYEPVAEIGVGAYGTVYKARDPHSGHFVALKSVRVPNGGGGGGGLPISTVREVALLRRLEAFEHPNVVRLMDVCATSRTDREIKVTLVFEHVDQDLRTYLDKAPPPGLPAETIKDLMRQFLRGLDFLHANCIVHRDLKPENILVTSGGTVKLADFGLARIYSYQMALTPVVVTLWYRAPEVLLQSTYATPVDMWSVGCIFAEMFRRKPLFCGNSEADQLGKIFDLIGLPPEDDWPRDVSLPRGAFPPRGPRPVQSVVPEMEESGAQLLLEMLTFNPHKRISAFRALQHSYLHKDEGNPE
T2 sequence (P30281 whole entry partner): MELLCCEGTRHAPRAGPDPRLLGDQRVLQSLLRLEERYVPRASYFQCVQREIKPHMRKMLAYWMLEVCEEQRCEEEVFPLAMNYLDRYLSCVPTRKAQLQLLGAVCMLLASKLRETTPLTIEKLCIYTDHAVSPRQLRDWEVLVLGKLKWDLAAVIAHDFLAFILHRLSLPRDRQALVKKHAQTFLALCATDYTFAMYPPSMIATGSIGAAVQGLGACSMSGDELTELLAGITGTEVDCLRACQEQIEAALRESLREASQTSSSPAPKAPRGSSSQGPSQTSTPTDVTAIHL
T1 sequence (Q00534 whole entry): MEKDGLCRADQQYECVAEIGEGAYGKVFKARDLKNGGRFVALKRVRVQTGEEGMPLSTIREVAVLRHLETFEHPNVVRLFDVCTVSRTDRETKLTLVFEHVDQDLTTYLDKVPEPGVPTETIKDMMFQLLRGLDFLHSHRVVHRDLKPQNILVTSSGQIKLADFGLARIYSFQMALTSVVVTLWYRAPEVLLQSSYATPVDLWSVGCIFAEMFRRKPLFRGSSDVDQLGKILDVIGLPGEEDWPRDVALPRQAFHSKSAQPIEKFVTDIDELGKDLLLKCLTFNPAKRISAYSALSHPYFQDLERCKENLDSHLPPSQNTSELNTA
T1 sequence (P30281 whole entry partner): as the sequence (P30281 whole entry partner) above

CCN1CC2(C1)CN(c1ccc(Nc3ncc(Cl)c(C#Cc4cnc(CN5[C@@H](C)COC[C@@H]5C)n4C(C)C)n3)nc1)C2 [Example 104, 5-chloro-4-((2-(((3 S,5 S)-3,5-dimethylmorpholino)methyl)-1-isopropyl-1H-imidazol-5-yl)ethynyl)-N-(5-(6-ethyl-2,6-diazaspiro[3.3]heptan-2-yl)pyridin-2-yl)pyrimidin-2-amine]
pIC50 [1]: 7.35
pIC50 [2]: 8.25

CC(C)n1c(C#Cc2nc(N[C@@H]3CCOC[C@H]3O)ncc2Cl)cnc1CN1CCC[C@H](F)C1 [Example 105, (3S,4R)-4-((5-chloro-4-((2-(((S)-3-fluoropiperidin-1-yl)methyl)-1-isopropyl-1H-imidazol-5-yl)ethynyl)pyrimidin-2-yl)amino)tetrahydro-2H-pyran-3-ol]
pIC50 [1]: 6.38
pIC50 [2]: 7.58

CC(=O)N1CCN(Cc2ccc(Nc3ncc(Cl)c(C#Cc4cnc(CN5CCC[C@H](O)C5)n4C(C)C)n3)nc2)CC1 [Example 106, (S)-1-(4-((6-((5-chloro-4-((2-((3-hydroxypiperidin-1-yl)methyl)-1-isopropyl-1H-imidazol-5-yl)ethynyl)pyrimidin-2-yl)amino)pyridin-3-yl)methyl)piperazin-1-yl)ethan-1-one]
pIC50 [1]: 6.55
pIC50 [2]: 7.48

CCN1CCN(Cc2ccc(Nc3ncc(Cl)c(C#Cc4cnc(CN5CCC[C@H](O)C5)n4C(C)C)n3)nc2)CC1 [Example 107, (S)-1-((5-((5-chloro-2-((5-((4-ethylpiperazin-1-yl)methyl)pyridin-2-yl)amino)pyrimidin-4-yl)ethynyl)-1-isopropyl-1H-imidazol-2-yl)methyl)piperidin-3-ol]
pIC50 [1]: 6.94
pIC50 [2]: 8.05

CCN1CC2(C1)CN(c1ccc(Nc3ncc(Cl)c(C#Cc4cnc(CN5CCC[C@H](O)C5)n4C(C)C)n3)nc1)C2 [Example 108, (S)-1-((5-((5-chloro-2-((5-(6-ethyl-2,6-diazaspiro[3.3]heptan-2-yl)pyridin-2-yl)amino)pyrimidin-4-yl)ethynyl)-1-isopropyl-1H-imidazol-2-yl)methyl)piperidin-3-ol]
pIC50 [1]: 7.28
pIC50 [2]: 8.28

CC(C)n1c(C#Cc2nc(N[C@@H]3CCOC[C@H]3O)ncc2Cl)cnc1CN1CCCC(C)(O)C1 (stereo partly drawn) [Example 110, 1-((5-((5-chloro-2-(((3 S,4R)-3-hydroxytetrahydro-2H-pyran-4-yl)amino)pyrimidin-4-yl)ethynyl)-1-isopropyl-1H-imidazol-2-yl)methyl)-3-methylpiperidin-3-ol]
pIC50 [1]: 6.35
pIC50 [2]: 7.44

CC1(C)OCCn2ncc(C#Cc3nc(N[C@@H]4CCOC[C@H]4O)ncc3Cl)c21 [Example 111, (3 S,4R)-4-((5-chloro-4-((4,4-dimethyl-6,7-dihydro-4H-pyrazolo[5,1-c][1,4]oxazin-3-yl)ethynyl)pyrimidin-2-yl)amino)tetrahydro-2H-pyran-3-ol]
pIC50 [1]: 6.47
pIC50 [2]: 7.33

CC(C)n1c(C#Cc2nc(N[C@@H]3CCOC[C@H]3O)ncc2Cl)cnc1C1CCO1 (stereo partly drawn) [Example 112, (3S,4R)-4-((5-chloro-4-((1-isopropyl-2-(oxetan-2-yl)-1H-imidazol-5-yl)ethynyl)pyrimidin-2-yl)amino)tetrahydro-2H-pyran-3-ol]
pIC50 [1]: 5.91
pIC50 [2]: 6.75

CC(C)n1c(C#Cc2nc(Nc3ccc(N4CC5(CN(CC(F)(F)F)C5)C4)cn3)ncc2Cl)cnc1CN1CCC[C@H](O)C1 [Example 113, (S)-1-((5-((5-chloro-2-((5-(6-(2,2,2-trifluoroethyl)-2,6-diazaspiro[3.3]heptan-2-yl)pyridin-2-yl)amino)pyrimidin-4-yl)ethynyl)-1-isopropyl-1H-imidazol-2-yl)methyl)piperidin-3-ol]
pIC50 [1]: 7.34
pIC50 [2]: 8.23

CC(C)n1c(C#Cc2nc(Nc3ccc(C(=O)N4CCCC4)cn3)ncc2Cl)cnc1C(C)(C)O [Example 114, (6-((5-chloro-4-((2-(2-hydroxypropan-2-yl)-1-isopropyl-1H-imidazol-5-yl)ethynyl)pyrimidin-2-yl)amino)pyridin-3-yl)(pyrrolidin-1-yl)methanone]
pIC50 [1]: 7.55
pIC50 [2]: 8.10
